From patent US10844077B2, “Thiazolyl-containing compounds for treating proliferative diseases” (Dana-Farber Cancer Institute, Inc., priority 2014, dated 2020)
Several values for one entry are separate records, joined by “and”; a condition that tells them apart may be missing. Identical values can stand only once.

Assays:
Assay in all cases: KINATIV assay
Type in all cases: cell-based
AurB = AurB (Homo sapiens (Human), UniProt Q96GD4); details: 1 μM, 90 minutes, BCWM.1 cells
Summary of the method: (§1)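 Kinase occupancy was profiled in native cell lysates, which were labeled with an ATP-biotin probe. Bound kinases were identified and quantitated using ACTIVX.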

FRK = FRK (Homo sapiens (Human), UniProt P42685); details: 1 μM, 90 minutes, BCWM.1 cells
Summary of the method: as §1

EphB2 = EphB2 (Homo sapiens (Human), UniProt P29323); details: 1 μM, 90 minutes, BCWM.1 cells
Summary of the method: as §1

MARK3 = MARK3 (Homo sapiens (Human), UniProt P27448); details: 1 μM, 90 minutes, BCWM.1 cells
Summary of the method: as §1

CK2a2 = CK2a2 (Homo sapiens (Human), UniProt P19784); details: 1 μM, 90 minutes, BCWM.1 cells
Summary of the method: as §1

TAO2 = TAO2 (Homo sapiens (Human), UniProt Q9UL54); details: 1 μM, 90 minutes, BCWM.1 cells
Summary of the method: as §1

CDK11, CDK8 = details: 1 μM, 90 minutes, BCWM.1 cells
Summary of the method: as §1

MST2 = MST2 (Homo sapiens (Human), UniProt Q13188); details: 1 μM, 90 minutes, BCWM.1 cells
Summary of the method: as §1

TAO1, TAO3 = details: 1 μM, 90 minutes, BCWM.1 cells
Summary of the method: as §1

PITSLRE = details: 1 μM, 90 minutes, BCWM.1 cells
Summary of the method: as §1

GSK3B = GSK3B (Homo sapiens (Human), UniProt P49841); details: GSK3B; 1 μM, 90 minutes, BCWM.1 cells
Summary of the method: as §1

STLK5 = STLK5 (Homo sapiens (Human), UniProt Q7RTN6); details: 1 μM, 90 minutes, BCWM.1 cells
Summary of the method: as §1

PI4KA, PI4KAP2 = details: 1 μM, 90 minutes, BCWM.1 cells
Summary of the method: as §1

AurA, AurB, AurC = details: 1 μM, 90 minutes, BCWM.1 cells
Summary of the method: as §1

PEK = PEK (Homo sapiens (Human), UniProt Q9NZJ5); details: 1 μM, 90 minutes, BCWM.1 cells
Summary of the method: as §1

MAST1, MAST2 = details: 1 μM, 90 minutes, BCWM.1 cells
Summary of the method: as §1

RSK1, RSK2, RSK3 domain1 = details: 1 μM, 90 minutes, BCWM.1 cells
Summary of the method: as §1

CaMK2d = CaMK2d (Homo sapiens (Human), UniProt Q13557); details: 1 μM, 90 minutes, BCWM.1 cells
Summary of the method: as §1

PIK3C2B = PIK3C2B (Homo sapiens (Human), UniProt O00750); details: 1 μM, 90 minutes, BCWM.1 cells
Summary of the method: as §1

PI4KB = PI4KB (Homo sapiens (Human), UniProt Q9UBF8); details: 1 μM, 90 minutes, BCWM.1 cells
Summary of the method: as §1

ULK3 = ULK3 (Homo sapiens (Human), UniProt Q6PHR2); details: 1 μM, 90 minutes, BCWM.1 cells
Summary of the method: as §1

[1] = system: ZC1/HGK, ZC2/TNIK, ZC3/MINK; details: 1 μM, 90 minutes, BCWM.1 cells
Summary of the method: as §1

MST1, MST2 = details: 1 μM, 90 minutes, BCWM.1 cells
Summary of the method: as §1

VRK2 = VRK2 (Homo sapiens (Human), UniProt Q86Y07); details: 1 μM, 90 minutes, BCWM.1 cells
Summary of the method: as §1

ZC2/TNIK = ZC2/TNIK (Homo sapiens (Human), UniProt Q9UKE5); details: 1 μM, 90 minutes, BCWM.1 cells
Summary of the method: as §1

AMPKa1 = AMPKa1 (Homo sapiens (Human), UniProt Q13131); details: 1 μM, 90 minutes, BCWM.1 cells
Summary of the method: as §1

SRPK1, SRPK2 = details: 1 μM, 90 minutes, BCWM.1 cells
Summary of the method: as §1

MYO3A, MYO3B = details: 1 μM, 90 minutes, BCWM.1 cells
Summary of the method: as §1

CaMK2g = CaMK2g (Homo sapiens (Human), UniProt Q13555); details: 1 μM, 90 minutes, BCWM.1 cells
Summary of the method: as §1

TLK1 = TLK1 (Homo sapiens (Human), UniProt Q9UKI8); details: 1 μM, 90 minutes, BCWM.1 cells
Summary of the method: as §1

AKT1 = AKT1 (Homo sapiens (Human), UniProt P31749); details: 1 μM, 90 minutes, BCWM.1 cells
Summary of the method: as §1

PYK2 = PYK2 (Homo sapiens (Human), UniProt Q14289); details: 1 μM, 90 minutes, BCWM.1 cells
Summary of the method: as §1

SRPK1 = SRPK1 (Homo sapiens (Human), UniProt Q96SB4); details: 1 μM, 90 minutes, BCWM.1 cells
Summary of the method: as §1

BLK = BLK (Homo sapiens (Human), UniProt P51451); details: 1 μM, 90 minutes, BCWM.1 cells
Summary of the method: as §1

STLK6 = STLK6 (Homo sapiens (Human), UniProt Q9C0K7); details: 1 μM, 90 minutes, BCWM.1 cells
Summary of the method: as §1

Wnk1, Wnk2, Wnk3 = details: 1 μM, 90 minutes, BCWM.1 cells
Summary of the method: as §1

p70S6K = p70S6K (Homo sapiens (Human), UniProt P23443); details: 1 μM, 90 minutes, BCWM.1 cells
Summary of the method: as §1

PHKg2 = PHKg2 (Homo sapiens (Human), UniProt P15735); details: 1 μM, 90 minutes, BCWM.1 cells
Summary of the method: as §1

ITPK1 = ITPK1 (Homo sapiens (Human), UniProt Q13572); details: 1 μM, 90 minutes, BCWM.1 cells
Summary of the method: as §1

NEK4 = NEK4 (Homo sapiens (Human), UniProt P51957); details: 1 μM, 90 minutes, BCWM.1 cells
Summary of the method: as §1

NLK = NLK (Homo sapiens (Human), UniProt Q9UBE8); details: 1 μM, 90 minutes, BCWM.1 cells
Summary of the method: as §1

MARK4 = MARK4 (Homo sapiens (Human), UniProt Q96L34); details: 1 μM, 90 minutes, BCWM.1 cells
Summary of the method: as §1

Chain of STLK5 (Q7RTN6 whole entry): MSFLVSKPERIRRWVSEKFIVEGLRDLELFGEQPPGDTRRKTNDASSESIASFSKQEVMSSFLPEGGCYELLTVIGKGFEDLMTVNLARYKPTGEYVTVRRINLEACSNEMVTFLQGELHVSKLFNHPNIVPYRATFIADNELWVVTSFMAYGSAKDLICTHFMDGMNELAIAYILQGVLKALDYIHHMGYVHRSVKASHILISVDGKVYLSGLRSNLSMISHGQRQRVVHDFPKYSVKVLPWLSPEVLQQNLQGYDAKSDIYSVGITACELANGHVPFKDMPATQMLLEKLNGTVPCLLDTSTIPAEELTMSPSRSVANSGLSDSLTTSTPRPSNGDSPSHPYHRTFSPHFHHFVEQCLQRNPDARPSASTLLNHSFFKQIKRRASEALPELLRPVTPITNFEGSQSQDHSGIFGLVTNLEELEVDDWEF
Chain of PI4KB (Q9UBF8 whole entry): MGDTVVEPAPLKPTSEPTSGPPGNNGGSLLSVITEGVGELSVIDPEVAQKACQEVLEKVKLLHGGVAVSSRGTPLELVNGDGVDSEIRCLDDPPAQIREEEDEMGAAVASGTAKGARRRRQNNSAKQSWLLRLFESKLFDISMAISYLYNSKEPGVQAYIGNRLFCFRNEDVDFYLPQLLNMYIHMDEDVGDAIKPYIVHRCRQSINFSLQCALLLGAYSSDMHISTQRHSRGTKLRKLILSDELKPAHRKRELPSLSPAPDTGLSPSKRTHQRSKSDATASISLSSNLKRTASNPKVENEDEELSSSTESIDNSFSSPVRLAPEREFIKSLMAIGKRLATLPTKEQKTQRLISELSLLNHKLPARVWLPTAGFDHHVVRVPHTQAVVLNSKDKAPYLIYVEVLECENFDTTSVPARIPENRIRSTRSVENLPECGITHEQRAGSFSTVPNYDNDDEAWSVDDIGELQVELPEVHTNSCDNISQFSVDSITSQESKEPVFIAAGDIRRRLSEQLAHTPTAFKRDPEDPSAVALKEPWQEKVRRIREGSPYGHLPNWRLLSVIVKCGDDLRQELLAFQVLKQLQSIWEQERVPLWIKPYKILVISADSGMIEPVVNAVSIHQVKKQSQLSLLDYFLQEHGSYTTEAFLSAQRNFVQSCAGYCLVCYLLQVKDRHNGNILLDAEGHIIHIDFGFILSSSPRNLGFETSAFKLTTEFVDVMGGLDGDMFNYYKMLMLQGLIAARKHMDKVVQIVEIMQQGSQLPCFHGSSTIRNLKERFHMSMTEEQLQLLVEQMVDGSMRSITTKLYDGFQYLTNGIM
Chain of TLK1 (Q9UKI8 whole entry): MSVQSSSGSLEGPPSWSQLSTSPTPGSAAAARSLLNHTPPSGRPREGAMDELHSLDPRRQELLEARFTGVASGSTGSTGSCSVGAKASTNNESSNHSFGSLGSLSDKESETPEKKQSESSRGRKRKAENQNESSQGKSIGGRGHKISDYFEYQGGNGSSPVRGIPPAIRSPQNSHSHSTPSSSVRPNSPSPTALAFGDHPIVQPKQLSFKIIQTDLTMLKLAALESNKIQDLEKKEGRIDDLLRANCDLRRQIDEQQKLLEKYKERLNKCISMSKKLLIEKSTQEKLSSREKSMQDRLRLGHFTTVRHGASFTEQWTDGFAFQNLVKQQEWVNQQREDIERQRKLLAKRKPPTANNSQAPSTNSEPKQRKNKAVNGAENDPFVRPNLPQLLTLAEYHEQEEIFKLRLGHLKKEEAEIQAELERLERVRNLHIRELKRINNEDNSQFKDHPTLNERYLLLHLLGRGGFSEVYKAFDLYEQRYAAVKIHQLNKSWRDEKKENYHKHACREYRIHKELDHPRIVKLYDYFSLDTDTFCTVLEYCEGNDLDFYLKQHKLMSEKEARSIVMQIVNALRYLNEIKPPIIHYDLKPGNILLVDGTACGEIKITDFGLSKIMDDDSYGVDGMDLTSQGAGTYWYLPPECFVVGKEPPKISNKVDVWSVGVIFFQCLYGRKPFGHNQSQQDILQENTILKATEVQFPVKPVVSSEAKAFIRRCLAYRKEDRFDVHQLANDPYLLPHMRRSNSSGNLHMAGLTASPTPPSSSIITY
Chain of ULK3 (Q6PHR2 whole entry): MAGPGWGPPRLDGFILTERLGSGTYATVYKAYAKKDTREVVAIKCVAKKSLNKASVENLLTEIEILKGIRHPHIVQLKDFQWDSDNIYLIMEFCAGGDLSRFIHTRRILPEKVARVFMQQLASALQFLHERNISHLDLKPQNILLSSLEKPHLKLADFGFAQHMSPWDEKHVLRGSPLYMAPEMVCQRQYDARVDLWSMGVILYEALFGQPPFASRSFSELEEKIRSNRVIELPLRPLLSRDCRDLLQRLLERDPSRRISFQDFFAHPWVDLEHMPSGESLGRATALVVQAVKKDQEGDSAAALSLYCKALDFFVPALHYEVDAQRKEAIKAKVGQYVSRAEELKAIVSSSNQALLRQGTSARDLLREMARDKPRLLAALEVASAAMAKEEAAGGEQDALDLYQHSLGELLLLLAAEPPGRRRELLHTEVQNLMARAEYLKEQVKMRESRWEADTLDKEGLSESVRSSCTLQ
Chain of PIK3C2B (O00750 whole entry): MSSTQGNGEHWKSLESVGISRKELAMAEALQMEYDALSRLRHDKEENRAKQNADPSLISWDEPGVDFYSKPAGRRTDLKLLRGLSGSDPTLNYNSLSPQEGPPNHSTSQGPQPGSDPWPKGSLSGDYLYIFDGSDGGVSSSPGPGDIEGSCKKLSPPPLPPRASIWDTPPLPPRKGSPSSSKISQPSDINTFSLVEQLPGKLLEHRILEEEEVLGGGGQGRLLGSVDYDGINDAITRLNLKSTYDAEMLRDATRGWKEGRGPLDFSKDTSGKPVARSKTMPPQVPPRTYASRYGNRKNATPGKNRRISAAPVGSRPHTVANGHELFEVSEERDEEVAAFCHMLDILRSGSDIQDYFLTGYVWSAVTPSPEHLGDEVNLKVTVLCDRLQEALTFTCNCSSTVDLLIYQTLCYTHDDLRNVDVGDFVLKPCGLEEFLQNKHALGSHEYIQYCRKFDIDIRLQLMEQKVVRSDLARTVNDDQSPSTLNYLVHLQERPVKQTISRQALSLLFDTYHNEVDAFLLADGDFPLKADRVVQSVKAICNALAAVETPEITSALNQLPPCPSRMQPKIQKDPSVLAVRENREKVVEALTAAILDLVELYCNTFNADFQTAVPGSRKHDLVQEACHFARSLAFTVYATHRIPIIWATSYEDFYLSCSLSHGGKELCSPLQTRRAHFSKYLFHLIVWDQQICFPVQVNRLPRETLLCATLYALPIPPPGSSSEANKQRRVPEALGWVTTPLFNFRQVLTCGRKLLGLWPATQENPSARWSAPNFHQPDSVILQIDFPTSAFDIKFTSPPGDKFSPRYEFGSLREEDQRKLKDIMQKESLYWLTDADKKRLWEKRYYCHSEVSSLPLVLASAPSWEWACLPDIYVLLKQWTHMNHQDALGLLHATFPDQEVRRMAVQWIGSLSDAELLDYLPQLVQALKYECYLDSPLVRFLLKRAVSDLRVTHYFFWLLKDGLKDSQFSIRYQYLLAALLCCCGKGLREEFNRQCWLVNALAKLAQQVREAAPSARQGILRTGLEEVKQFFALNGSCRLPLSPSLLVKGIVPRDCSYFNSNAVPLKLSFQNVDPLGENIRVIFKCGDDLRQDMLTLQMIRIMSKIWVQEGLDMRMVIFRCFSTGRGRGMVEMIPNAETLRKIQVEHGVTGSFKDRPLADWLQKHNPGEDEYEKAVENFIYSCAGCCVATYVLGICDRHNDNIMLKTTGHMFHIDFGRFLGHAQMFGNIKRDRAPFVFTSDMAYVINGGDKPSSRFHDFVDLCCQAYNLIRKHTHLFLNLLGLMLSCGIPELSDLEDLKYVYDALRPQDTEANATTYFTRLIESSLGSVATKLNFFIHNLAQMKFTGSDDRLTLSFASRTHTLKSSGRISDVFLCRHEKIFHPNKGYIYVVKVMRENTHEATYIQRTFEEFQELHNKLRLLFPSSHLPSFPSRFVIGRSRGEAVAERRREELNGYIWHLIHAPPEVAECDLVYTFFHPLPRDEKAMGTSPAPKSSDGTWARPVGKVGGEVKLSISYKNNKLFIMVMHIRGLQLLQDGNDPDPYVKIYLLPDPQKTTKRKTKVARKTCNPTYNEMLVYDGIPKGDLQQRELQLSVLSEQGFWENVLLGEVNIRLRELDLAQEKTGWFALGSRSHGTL
Chain of NEK4 (P51957 whole entry): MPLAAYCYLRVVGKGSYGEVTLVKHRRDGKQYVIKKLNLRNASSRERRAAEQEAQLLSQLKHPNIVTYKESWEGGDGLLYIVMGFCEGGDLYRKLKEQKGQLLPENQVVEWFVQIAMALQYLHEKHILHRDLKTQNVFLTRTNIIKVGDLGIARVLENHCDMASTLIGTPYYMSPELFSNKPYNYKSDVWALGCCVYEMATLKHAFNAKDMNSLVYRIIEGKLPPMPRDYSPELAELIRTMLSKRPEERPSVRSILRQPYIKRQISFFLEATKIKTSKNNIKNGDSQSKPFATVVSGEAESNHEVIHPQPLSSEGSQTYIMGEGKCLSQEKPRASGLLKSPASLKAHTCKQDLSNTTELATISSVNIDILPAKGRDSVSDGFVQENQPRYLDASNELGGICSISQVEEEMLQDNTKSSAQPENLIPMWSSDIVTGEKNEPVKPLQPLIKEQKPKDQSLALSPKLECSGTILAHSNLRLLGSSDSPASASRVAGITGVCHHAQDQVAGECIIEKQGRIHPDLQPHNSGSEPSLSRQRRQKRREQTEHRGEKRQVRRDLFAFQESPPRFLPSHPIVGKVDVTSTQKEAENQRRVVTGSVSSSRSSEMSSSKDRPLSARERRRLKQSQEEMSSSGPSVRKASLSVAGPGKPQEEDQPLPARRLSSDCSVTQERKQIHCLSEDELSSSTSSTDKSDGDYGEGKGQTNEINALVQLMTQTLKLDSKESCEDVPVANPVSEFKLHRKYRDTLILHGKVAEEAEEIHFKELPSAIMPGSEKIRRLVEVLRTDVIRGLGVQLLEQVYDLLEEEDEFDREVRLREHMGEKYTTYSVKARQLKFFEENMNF

## C=CC(=O)N1CC[C@@H](Nc2nccc(Nc3ncc(C(=O)Nc4c(C)cccc4C)s3)n2)C1 [Example I-4]
AurB
  % change of MS signal compared to control sample: −10.1%
FRK
  % change of MS signal compared to control sample: 87.5%
EphB2
  % change of MS signal compared to control sample: >90%
MARK3
  % change of MS signal compared to control sample: 13.5%
CK2a2
  % change of MS signal compared to control sample: −3.6%
TAO2
  % change of MS signal compared to control sample: −7.0%
CDK11, CDK8
  % change of MS signal compared to control sample: −36.1%
MST2
  % change of MS signal compared to control sample: 12.3%
TAO1, TAO3
  % change of MS signal compared to control sample: 7.6%
PITSLRE
  % change of MS signal compared to control sample: −13.6%
GSK3B
  % change of MS signal compared to control sample: 0.7%
STLK5
  % change of MS signal compared to control sample: 2.0% and −4.4%
PI4KA, PI4KAP2
  % change of MS signal compared to control sample: −37.7%
AurA, AurB, AurC
  % change of MS signal compared to control sample: 2.3%
PEK
  % change of MS signal compared to control sample: −44.9%
MAST1, MAST2
  % change of MS signal compared to control sample: −62.1%
RSK1, RSK2, RSK3 domain1
  % change of MS signal compared to control sample: −44.0%
CaMK2d
  % change of MS signal compared to control sample: −8.5%
PIK3C2B
  % change of MS signal compared to control sample: −5.8%
PI4KB
  % change of MS signal compared to control sample: 20.0% and 16.7%
ULK3
  % change of MS signal compared to control sample: 22.5% and 21.9%
[1]
  % change of MS signal compared to control sample: 3.3%
MST1, MST2
  % change of MS signal compared to control sample: 3.8%
VRK2
  % change of MS signal compared to control sample: −30.6%
ZC2/TNIK
  % change of MS signal compared to control sample: 48.8%
AMPKa1
  % change of MS signal compared to control sample: 10.1%
SRPK1, SRPK2
  % change of MS signal compared to control sample: −14.7%
MYO3A, MYO3B
  % change of MS signal compared to control sample: 15.9%
CaMK2g
  % change of MS signal compared to control sample: −19.8%
TLK1
  % change of MS signal compared to control sample: 2.2% and 8.2%
AKT1
  % change of MS signal compared to control sample: −11.0%
PYK2
  % change of MS signal compared to control sample: 27.3%
SRPK1
  % change of MS signal compared to control sample: −2.1%
BLK
  % change of MS signal compared to control sample: >95%
STLK6
  % change of MS signal compared to control sample: 7.4%
Wnk1, Wnk2, Wnk3
  % change of MS signal compared to control sample: 17.5%
p70S6K
  % change of MS signal compared to control sample: −102.3%
PHKg2
  % change of MS signal compared to control sample: −15.6%
ITPK1
  % change of MS signal compared to control sample: 12.8%
NEK4
  % change of MS signal compared to control sample: 12.3%
NLK
  % change of MS signal compared to control sample: 6.7%

## C=CC(=O)N1CCC(Cn2ccc(Nc3ncc(C(=O)Nc4c(C)cccc4Cl)s3)n2)C1 (stereo not shown) [II-1]
AurB
  % change of MS signal compared to control sample: −7.2%
MARK4
  % change of MS signal compared to control sample: 12.8% and 9.7%
FRK
  % change of MS signal compared to control sample: 84.0%
EphB2
  % change of MS signal compared to control sample: >90%
MARK3
  % change of MS signal compared to control sample: 18.4%
CK2a2
  % change of MS signal compared to control sample: 13.8%
TAO2
  % change of MS signal compared to control sample: −17.9%
CDK11, CDK8
  % change of MS signal compared to control sample: −9.2%
MST2
  % change of MS signal compared to control sample: 14.7%
TAO1, TAO3
  % change of MS signal compared to control sample: −17.2%
PITSLRE
  % change of MS signal compared to control sample: −16.1%
GSK3B
  % change of MS signal compared to control sample: −5.1%
STLK5
  % change of MS signal compared to control sample: 2.6% and 3.8%
PI4KA, PI4KAP2
  % change of MS signal compared to control sample: −45.7%
AurA, AurB, AurC
  % change of MS signal compared to control sample: −3.6%
PEK
  % change of MS signal compared to control sample: −31.0%
MAST1, MAST2
  % change of MS signal compared to control sample: −81.3%
RSK1, RSK2, RSK3 domain1
  % change of MS signal compared to control sample: −52.0%
CaMK2d
  % change of MS signal compared to control sample: −14.8%
PIK3C2B
  % change of MS signal compared to control sample: −5.8%
PI4KB
  % change of MS signal compared to control sample: 7.2% and 13.7%
ULK3
  % change of MS signal compared to control sample: 22.4% and 22.8%
[1]
  % change of MS signal compared to control sample: 4.2%
MST1, MST2
  % change of MS signal compared to control sample: 3.1%
VRK2
  % change of MS signal compared to control sample: 5.2%
ZC2/TNIK
  % change of MS signal compared to control sample: −10.0%
AMPKa1
  % change of MS signal compared to control sample: 5.1%
SRPK1, SRPK2
  % change of MS signal compared to control sample: 0.0%
MYO3A, MYO3B
  % change of MS signal compared to control sample: 12.9%
CaMK2g
  % change of MS signal compared to control sample: −17.5%
TLK1
  % change of MS signal compared to control sample: 7.1% and 5.7%
AKT1
  % change of MS signal compared to control sample: −17.8%
SRPK1
  % change of MS signal compared to control sample: −4.7%
BLK
  % change of MS signal compared to control sample: >95%
STLK6
  % change of MS signal compared to control sample: −0.8%
Wnk1, Wnk2, Wnk3
  % change of MS signal compared to control sample: 2.4%
p70S6K
  % change of MS signal compared to control sample: −65.4%
PHKg2
  % change of MS signal compared to control sample: −9.1%
ITPK1
  % change of MS signal compared to control sample: 14.0%
NEK4
  % change of MS signal compared to control sample: 18.5%
NLK
  % change of MS signal compared to control sample: 3.7%
